Some results are limits rather than exact numbers.

40 compounds from patent publication US8877795B2, “Identification of stabilizers of multimeric proteins” (The Board of Trustees of the Leland Stanford Junior …, priority 2010, dated 2014) can be followed below.

For data set [1], the target named is TTR (Homo sapiens (Human), UniProt P02766). In words: Determination of IC50 using the FP assay (HTS format, probe 5). The data set is classed as binding. The note with it: read-out: IC50 (compound concentration that resulted in 50% decrease in the FP signal); dose-response FP assay in duplicate.
Data set [2] deals with WT TTR (Homo sapiens (Human), UniProt P02766). In words: Acid-mediated fibril formation assay for TTR amyloidogenesis (turbidity). The note with it: TTR 3.6 μM; for % fibril formation / TTR aggregation inhibition (in words): ligand 7.2 μM, 72 h; for % fibril formation: pH 4.4, 37° C., no ligand = 100%; for inhibition of fibril formation: substoichiometric: ligand 3.0 μM, monitored over 5 days.
Description: The efficacy of each compound to inhibit TTR amyloidogenesis was determined by monitoring the turbidity of TTR aggregation at acidic pH, as described previously. […] The final 1 ml sample mixture was vortexed, then incubated at 37° C. for 72 hours, after which the sample was vortexed and the optical density was measured at 400 nm on a Beckman DU® 640 spectrophotometer. […] The optical density was also corrected for the absorption of all test compounds in the absence of TTR. […] The optical density (400 nm) was measured as described above at 0, 24, 48, 72, 96, and 120 hours. All assays were performed in triplicate and the average values obtained are presented.
TTR was preincubated with small molecules for 30 min at room temperature before amyloidosis was initiated (lowering pH to 4.4, incubation at 37° C.). […] The amyloidogenesis inhibition efficacy of each compound was determined by monitoring the turbidity of TTR (400 nm). The extent of TTR amyloidogenesis was quantitated at a fixed time point (72 h). All amyloid fibril formation data was normalized to TTR amyloidogenesis in the absence of inhibitor, assigned to be 100% fibril formation. […] The aggregation inhibition was monitored over 5 days using the acid-mediated fibril formation assay (compared to 3 days for the fixed time point described above) (FIG. 5B).

The test system of data set [3] is WT TTR cytotoxicity in human IMR-32 neuroblastoma cells. In words: Inhibition of WT TTR cytotoxicity in IMR-32 cells. To be noted: TTR and ligand 8 μM, 24 h.
Description: (§1) The human cardiac cell line AC16 was maintained in DMEM:F12 (1:1) supplemented with 10% FBS, 1 mM Hepes buffer, 2 mM L-glutamine, 100 units/mL penicillin and 100 μg/mL streptomycin. Two to 4-day-old cultures (˜70% confluent) were used for the experiments.
(§2) Recombinant WT TTR purified in the cold in HBSS (Mediatech, Manassas, Va.) was used as a cytotoxic insult to IMR-32 cells and the amyloidogenic V122I TTR was used as cytotoxic insult to cardiac AC16 cells. Candidate compounds (16 mM in DMSO) were diluted 1:1000 with WT TTR or V122I TTR (16 mM in HBSS, filter sterilized) or with HBSS only. The mixtures were vortexed and incubated for 24 h at 4° C. WT TTR or V122I TTR (16 mM in HBSS) containing the same amount of DMSO than TTR/candidate compound mixtures was prepared in parallel and incubated under the same conditions.
(§3) The neuroblastoma IMR-32 and the cardiac AC16 cells were seeded in black wall, clear bottom, tissue culture treated 96-well plates (Costar) at a density of 6,000 cells/well and 250 cells/well, respectively in Opti-mem supplemented with 5% FBS, 1 mM Hepes buffer, 2 mM L-glutamine, 100 units/mL penicillin and 100 μg/mL streptomycin, 0.05 mg/mL CaCl2 and incubated overnight at 37° C. The medium was then removed and replaced immediately by the TTR/compound or HBSS previously diluted 1:1 in Opti-mem supplemented with 0.8 mg/mL BSA, 2 mM Hepes buffer, 4 mM L-glutamine, 200 units/mL penicillin, 200 μg/mL streptomycin and 0.1 mg/mL CaCl2. The cells were incubated 24 h at 37° C. after which cell viability was measured.
(§4) Cell viability of the cells treated with TTR or TTR/candidate compound was evaluated by a resazurin reduction assay. Briefly, 10 μL/well of resazurin (500 mM, PBS) was added to each well and incubated for 2-3 h at 37° C. Viable cells reduce resazurin to the highly fluorescent resorufin dye, which is quantitated in a multiwell plate reader (Ex/Em 530/590 nm, Tecan Safire2, Austria). Cell viability was calculated as percentage of fluorescence relative to cells treated with vehicle only (100% viability) after subtraction of blank fluorescence (wells without cells). All experimental conditions were performed at least in six replicates. Averages and SEM corresponding to 2 independently performed experiments were calculated.
(§5) The compounds under study were pre-incubated with WT TTR or V122I TTR for 24 h at 4° C. at equimolar concentrations (8 μM) and added to IMR-32 cells or AC16 cells, respectively. Cell viability was measured after 24 h by a resazurin reduction assay. […] The percentage of viable cells was calculated relative to cells treated with vehicle only (cell culture media and DMSO)—which were assigned to be 100% viable.
In data set [4] the test system is V122I TTR cytotoxicity in human AC16 cardiac cells. In words: Inhibition of V122I TTR cytotoxicity in AC16 cells. The note with it: TTR and ligand 8 μM, 24 h.
Description: as §1, §2, §3, §4, §5
The target of data set [5] is human wild type TTR (Homo sapiens (Human), UniProt P02766). In words: Isothermal titration calorimetry (ITC) of ligands against TTR. To be noted: for TΔS binding entropy / ΔG binding free energy / ΔH binding enthalpy: ITC; for Kd: TTR 2 μM titrated with ligand 25 μM, 25° C., one-to-one binding model, read-out: Kd (ITC). The format is binding. As to the method: Calorimetric titrations were carried out on a VP-ITC calorimeter (MicroCal, Northhampton, Mass.). […] Prior to each titration, all samples were degassed for 10 minutes. The initial injection of 3.0 μL was followed by 30 injections of 8.0 μL each (25° C.) to the point that TTR was fully saturated with ligand. Integration of the thermogram after subtraction of blanks yielded a binding isotherm that was analyzed with MicroCal Origin 5.0 software.

With `COc1ccc(/C=N/n2c(S)nnc2C(F)(F)F)cc1O`, in data set [1], the IC50 was 277 nM. In addition, in data set [2], the “% fibril formation” value worked out at 0.43 ± 0.61%.
The corresponding values for `COc1c(Br)cc(/C=C2\SC(=O)NC2=O)cc1Br` are 301 nM and 0.37 ± 0.53%.
For `CCOc1ccccc1-c1nc(-c2ccncc2)no1`, the “% fibril formation” value in data set [2] was determined as 0.00 ± 0.00%.
For `CC1(C)NC(=O)C(C#N)=C(SCc2ccccc2)S1`, in data set [1], the IC50 worked out at 433 nM. Further, in data set [2], the “% fibril formation” value turned out to be 0.52 ± 0.73%.
As to `Cc1[nH]c2ccccc2c1C(C#N)(C#N)C1C(=O)c2ccccc2C1=O`, the IC50 in data set [1] turned out to be 586 nM. Also, the “% fibril formation” value in data set [2] is recorded as 5.77 ± 3.91%.
With `O=c1cc(-c2ccc(O)cc2)oc2cc(O)cc(O)c12`, the IC50 in data set [1] came out at 653 nM. Besides, in data set [2], the “% fibril formation” value is 10.07 ± 0.53%.
The corresponding values for `O=C1NC(=O)/C(=C/c2cccc(C(F)(F)F)c2)S1` are 815 nM and 1.92 ± 1.08%.
The corresponding values for `O=C1NC(=O)/C(=C/c2cccc3ccccc23)S1` are 842 nM and 3.22 ± 0.34%.
The corresponding values for `O=C(O)c1cc2nc(-c3ccc(Cl)c(Cl)c3)cc(C(F)(F)F)n2n1` are 2580 nM and 1.81 ± 2.56%.
For `COc1ccccc1CC(=O)c1ccc(O)cc1O`, the IC50 in data set [1] was found to be 2660 nM. The “% fibril formation” value in data set [2] was determined as 9.60 ± 1.58%.
For the compound `Cc1ccccc1/C=C1\SC(=O)NC1=O`, in data set [1], the IC50 turned out to be 3350 nM. Further, the “% fibril formation” value in data set [2] is given as 10.44 ± 4.88%.
Take `O=c1c(Oc2ccccc2Br)coc2cc(O)ccc12`: the IC50 in data set [1] turned out to be 3710 nM. Besides, in data set [2], the “% fibril formation” value is 13.91 ± 1.28%.
Consider `O=C(O)Cc1ccccc1Nc1c(O)cccc1Cl`, for which the IC50 in data set [1] turned out to be 3740 nM. In data set [2], the “% fibril formation” value is reported as 11.56 ± 0.72%.
For the compound `O=C1NC(=O)/C(=C/c2ccc(-c3ccc(Cl)c(C(=O)O)c3)o2)S1`, the IC50 in data set [1] was 3930 nM. In addition, the “% fibril formation” value in data set [2] was found to be 13.90 ± 5.52%.
Consider `O=c1c(Oc2ccccc2Cl)c(C(F)(F)F)oc2cc(O)ccc12`, for which the IC50 in data set [1] came to 4220 nM. Besides, the “% fibril formation” value in data set [2] was determined as 24.36 ± 1.11%.
`N#CC1=C(SCc2ccccc2)SC(c2ccccc2O)NC1=O` (stereo not shown): in data set [1], the IC50 turned out to be 4790 nM. Further, the “% fibril formation” value in data set [2] stood at 3.17 ± 4.48%.
Taken in the same sequence, the figures for `CSC1=NSC2=NC(=O)/C(=C\c3cccc4ccccc34)C(=N)N12` were 4880 nM and 28.77 ± 6.36%.
Take `CCOc1cc(C2NC(C(=O)O)CS2)cc(Br)c1OCc1ccccc1C` (stereo not shown): the IC50 in data set [1] is 4930 nM. The “% fibril formation” value in data set [2] is 17.57 ± 4.81%.
Taken in the same sequence, the figures for `O=C1C(Br)=CC(=NS(=O)(=O)c2ccccc2)C=C1Br` were 5410 nM and 43.25 ± 4.35%.
Taken in the same sequence, the figures for `Oc1nc(O)c2sc3nc(C(F)(F)F)cc(Cc4ccccc4)c3c2n1` were 5600 nM and 35.32 ± 3.69%.
On to `O=C1NC(=O)/C(=C/c2ccccc2OCc2ccccc2)S1`, for which the IC50 in data set [1] stood at 5800 nM. Also, the “% fibril formation” value in data set [2] stood at 38.38 ± 3.33%.
The corresponding values for `CC1=C(CCC(=O)O)C(=O)N2c3ccccc3NC2C1C#N` (stereo not shown) are 8690 nM and 46.24 ± 1.33%.
As for `COc1cc(/C=C2\C(=N)N3N=C(S(C)(=O)=O)SC3=NC2=O)ccc1OCc1ccccc1C`, the IC50 in data set [1] stood at 9760 nM. The “% fibril formation” value in data set [2] worked out at 48.25 ± 0.68%.
The corresponding values for `O=C(NCc1cc(Br)cc(Br)c1O)c1ccccc1` are 10000 nM and 50.96 ± 1.98%.
In the case of `CC(=O)Nc1ccc(Nc2nc3ccccc3nc2NS(=O)(=O)c2ccc(C)cc2)cc1`, the IC50 in data set [1] amounted to 10600 nM. In addition, the “% fibril formation” value in data set [2] was 49.43 ± 4.26%.
Taken in the same sequence, the figures for `Cc1nc2c(C(=O)NCCC(C)C)cnn2c(O)c1Cc1ccccc1F` were 11000 nM and 47.39 ± 1.94%.
For the compound `O=[N+]([O-])c1cc(O)c(O)c([N+](=O)[O-])c1` [3,5-dinitrocatechol, reference compound], the “prevention of WT TTR-induced cytotoxicity (in words)” value in data set [3] is on record as “poor inhibitor”. For the same compound, the “TTR aggregation inhibition (in words)” value in data set [2] is “potent aggregation inhibitors”. Besides, the “prevention of V122I TTR-induced cytotoxicity (in words)” value in data set [4] is given as “poor inhibitor”.
For the compound `NCCOCCOCCOc1c(Cl)cc(Nc2ccccc2C(=O)O)cc1Cl` [Compound 4, 2-(4-(2-(2-(2-aminoethoxy)ethoxy)ethoxy)-3,5-dichlorophenylamino)benzoic acid], in data set [5], the TΔS binding entropy worked out at 0.08 ± 0.01 kcal/mol, the “ΔG binding free energy” value was -8.93 ± 0.14 kcal/mol, the ΔH binding enthalpy was -8.85 ± 0.95 kcal/mol and the Kd turned out to be 285 nM.
On to `O=C(O)c1ccccc1Nc1cc(Cl)c(OCCOCCOCCNC(=S)Nc2ccc3c(c2)C(=O)OC32c3ccc(O)cc3Oc3cc(O)ccc32)c(Cl)c1` [Compound 5, 2-(3,5-dichloro-4-(2-(2-(2-(3-(3′,6′-dihydroxy-3-oxo-3H-spiro[isobenzofuran-1,9′-xanthene]-5-yl)thioureido)ethoxy)ethoxy)ethoxy)phenylamino)benzoic acid], for which the “decrease in binding affinity to TTR on attaching FITC to 4” value in data set [5] (5 relative to 4) is on record as roughly 3 fold. In data set [5], the TΔS binding entropy amounted to 1.44 ± 0.07 kcal/mol, the “ΔG binding free energy” value is -8.30 ± 0.45 kcal/mol, the ΔH binding enthalpy is -6.86 ± 0.36 kcal/mol and the Kd stood at 820 nM.
In the case of `Cc1n[nH]c(C)c1CCCOc1ccccc1F` [Compound 7], in data set [3], the “prevention of WT TTR-induced cytotoxicity (in words)” value is listed as “completely prevented TTR-induced cytotoxicity”. In data set [2], the “inhibition of fibril formation” value is greater than 75%. Further, in data set [5], the TΔS binding entropy is -0.15 ± 0.002 kcal/mol, the “ΔG binding free energy” value was -8.86 ± 0.17 kcal/mol, the ΔH binding enthalpy was -9.01 ± 0.13 kcal/mol and the Kd came out at 321 nM. Further, in data set [4], the “prevention of V122I TTR-induced cytotoxicity (in words)” value is “completely prevented TTR-induced cytotoxicity”.
For the compound `CN1C(=N)NC(=O)/C1=C/c1cc(Br)c(O)c(Br)c1` [Compound 14], the “prevention of WT TTR-induced cytotoxicity (in words)” value in data set [3] is “completely prevented TTR-induced cytotoxicity”. In addition, the “inhibition of fibril formation” value in data set [2] is recorded as greater than 75%. In data set [5], the TΔS binding entropy is 2.36 ± 0.08 kcal/mol, the “ΔG binding free energy” value is -9.02 ± 0.19 kcal/mol, the ΔH binding enthalpy is -6.66 ± 0.22 kcal/mol and the Kd turned out to be 245 nM. Moreover, the “prevention of V122I TTR-induced cytotoxicity (in words)” value in data set [4] is reported as “completely prevented TTR-induced cytotoxicity”.
With `Cc1n[nH]c(C)c1CCc1nc2c3ccccc3[nH]c(=S)n2n1` [Compound 15], the “prevention of WT TTR-induced cytotoxicity (in words)” value in data set [3] is listed as “completely prevented TTR-induced cytotoxicity”. Further, the “inhibition of fibril formation” value in data set [2] is reported as greater than 75%. Also, the “prevention of V122I TTR-induced cytotoxicity (in words)” value in data set [4] is “completely prevented TTR-induced cytotoxicity”.
Consider `O=C(O)c1cccnc1Nc1cccc(C(F)(F)F)c1` [Niflumic acid, niflumic acid, reference compound], for which, in data set [2], the “TTR aggregation inhibition (in words)” value is “potent aggregation inhibitors”. The “prevention of V122I TTR-induced cytotoxicity (in words)” value in data set [4] is listed as “relatively poor inhibitor”.
In the case of `O=C(c1cc(O)c(O)c([N+](=O)[O-])c1)c1ccccc1F` [Ro 41-0960, reference compound], the “prevention of WT TTR-induced cytotoxicity (in words)” value in data set [3] was “completely prevented TTR-induced cytotoxicity”. In addition, in data set [2], the “TTR aggregation inhibition (in words)” value is recorded as “potent aggregation inhibitors” and the “inhibition of fibril formation” value is given as greater than 75%. In data set [5], the TΔS binding entropy was -4.3 ± 0.11 kcal/mol, the “ΔG binding free energy” value was -9.18 ± 0.47 kcal/mol, the ΔH binding enthalpy was -13.5 ± 0.32 kcal/mol and the Kd turned out to be 184 nM. For the same compound, in data set [5] (listed as Ro41-0960), the TΔS binding entropy was -4.3 ± 0.11 kcal/mol, the “ΔG binding free energy” value was -9.18 ± 0.47 kcal/mol and the ΔH binding enthalpy was -13.5 ± 0.32 kcal/mol. Moreover, the “prevention of V122I TTR-induced cytotoxicity (in words)” value in data set [4] is on record as “completely prevented TTR-induced cytotoxicity”.
For the compound `O=C(O)c1cccnc1Nc1cccc(C(F)(F)F)c1` [drawing 60], the “% fibril formation” value in data set [2] is on record as 4.83 ± 1.19%.
With `Cc1n[nH]c(C)c1CCCOc1ccccc1F` [drawing 61], in data set [1], the IC50 was 296 nM. Moreover, the “% fibril formation” value in data set [2] stood at 0.75 ± 1.06%.
As for `O=[N+]([O-])c1cc(O)c(O)c([N+](=O)[O-])c1` [drawing 68], in data set [2], the “% fibril formation” value is given as 1.08 ± 0.59%.
In the case of `O=C(c1cc(O)c(O)c([N+](=O)[O-])c1)c1ccccc1F` [drawing 69], the IC50 in data set [1] came to 755 nM. For the same compound, in data set [2], the “% fibril formation” value was found to be 0.32 ± 0.45%.
Turning to `CN1C(=N)NC(=O)/C1=C/c1cc(Br)c(O)c(Br)c1` [drawing 72], the IC50 in data set [1] was determined as 1150 nM. Also, the “% fibril formation” value in data set [2] was determined as 0.00 ± 0.00%.
Taken in the same sequence, the figures for `Cc1n[nH]c(C)c1CCc1nc2c3ccccc3[nH]c(=S)n2n1` [drawing 73] were 1310 nM and 0.00 ± 0.00%.
